Results published in patent US20120164203A1, “PROCESS FOR PREPARATION OF STABLE, MICROENCAPSULATED AND SUSTAINED RELEASE BIOCIDAL ACTIVES AND COMPOSITION THEREOF” (priority 2009, published 2012).

Columns and labels:
[1] = Analytical determination of active ingredient in the leachate (water, UV-Vis); format: physicochemical; details: active 5% in water
Experimental: The active ingredient is added (5%) to required amount of water. After a certain amount of time, the leachate is collected through a filter and the same amount of water replaced. The amount of active ingredients of each leachate is determined analytically by UV-Vis.

[2] = Analytical determination of active ingredient leaching out of a paint film (UV-Visible); format: physicochemical; details: PVA paint film, total IPBC incorporated 2000 ppm
Experimental: The active ingredient is added to PVA paint to a final concentration of 2000 ppm. Drawdown of the paint samples are prepared by casting a 3-mil film onto drawdown paperboard (Lanetta). The drawdown samples are allowed to dry at room temperature for 24 hrs. A sample of 2×6 cm is cut. The cut samples are then placed in 100 ml of water in a closed beaker for the different duration of time limits. At different time intervals the water is collected and replaced with the same amount of water. The quantity of the active ingredient present in each leachate is determined by UV-Visible spectroscopic method.

[3] = tested on: Staphylococcus aureus ATCC 6538; assay: Antimicrobial activity (log reduction) on flexible PVC surface, Z 2801:2000; format: cell-based; details: 24 hrs incubation
Experimental: (§1) The aqueous biocidal dispersion containing encapsulated biocide was prepared as described in example 19 to provide 20% BIT (prepared as described in Example 5). The dispersion was incorporated into flexible PVC using a Brabender. The plastic samples containing different BIT concentrations were tested according to the Japanese HS Z 2801:2000 entitled “Antimicrobial products-test for antimicrobial activity and efficacy.”
(§2) Briefly, samples were inoculated on the surface with bacterial strains such as Escherichia coli ATCC 11229 or Staphylococcus aureus ATCC 6538. After 24 hrs of incusbation, the samples were examined to determine the number of bacterial count left on the surface of the sample. A reduction in the bacterial population or count was estimated based on the plate count of the control (untreated or blank) sample and treated samples. The results of this activity indicate that aqueous biocidal dispersion prepared according to the present invention provides better antibacterial activity through larger log reduction and is shown in Table 3.

[4] = tested on: Escherichia coli ATCC 11229; assay: as above; format: cell-based; details: 24 hrs incubation
Experimental: as §1, §2

CCCCNC(=O)OCC#CI [Non-encapsulated IPBC, 3-iodo-2-propargyl butyl carbamate]
IPBC in water (in ppm) ([1]; leaching time 5 minutes): 356 ± 4 ppm | IPBC in water (in ppm) ([1]; leaching time 1 hr): 273 ± 10 ppm | IPBC in water (in ppm) ([1]; leaching time 24 hrs): 236 ± 22 ppm | IPBC (in ppm) leached from Paint film ([2]; leaching time 1 hr): 1050 ppm | IPBC (in ppm) leached from Paint film ([2]; leaching time 3 hrs): 102 ppm | IPBC (in ppm) leached from Paint film ([2]; leaching time 15 hrs): 65 ppm | IPBC (in ppm) leached from Paint film ([2]; leaching time 48 hrs): 78 ppm

CCNc1nc(NC(C)(C)C)nc(SC)n1 [Non-encapsulated Terbutryn, Terbutryn]
Terbutryn in water (in ppm) ([1]; leaching time 5 minutes): 150 ppm | Terbutryn in water (in ppm) ([1]; leaching time 1 hr): 90 ppm | Terbutryn in water (in ppm) ([1]; leaching time 24 hrs): 79.8 ppm

O=c1[nH]sc2ccccc12 [BIT, 1,2-benzisothiazoline-3-one]
Antimicrobial Activity (Log Reduction) S. aureus ([3]; 100 ppm in flexible PVC): 0.2 | Antimicrobial Activity (Log Reduction) S. aureus ([3]; 250 ppm in flexible PVC): 0.6 | Antimicrobial Activity (Log Reduction) E. coli ([4]; 100 ppm in flexible PVC): 0.9 | Antimicrobial Activity (Log Reduction) E. coli ([4]; 250 ppm in flexible PVC): 2.5

CN(C)C(=O)Nc1ccc(Cl)c(Cl)c1 [Non-encapsulated Diuron, Diuron]
Diuron in water (in ppm) ([1]; leaching time 30 minutes): 53.6 ppm | Diuron in water (in ppm) ([1]; leaching time 2 hrs): 51.4 ppm | Diuron in water (in ppm) ([1]; leaching time 4 hrs): 54.6 ppm | Diuron in water (in ppm) ([1]; leaching time 20 hrs): 52.0 ppm
